From patent publication US6472389B1, “Pyrrolo[1,2-b] pyridazine derivatives having sPLA2 inhibitory effect” (Shionogi & Co., Ltd., priority 1998, dated 2002)
pIC50: −log10 of the molar value.

Key:
[1] = target: T1, recombinant human secretory phospholipase A2 (Homo sapiens, UniProt P14555); assay: Inhibition test of human secretory phospholipase A2 (chromogenic assay, 96 well microtiterplate); type: biochemical; conditions: sPLA2 50 ng/well, 40° C., 30 minutes, OD 405 nm, substrate 1,2-bis(heptanoylthio)-1,2-dideoxy-sn-glycero-3-phospholylcholine
T1 sequence (P14555 21-144): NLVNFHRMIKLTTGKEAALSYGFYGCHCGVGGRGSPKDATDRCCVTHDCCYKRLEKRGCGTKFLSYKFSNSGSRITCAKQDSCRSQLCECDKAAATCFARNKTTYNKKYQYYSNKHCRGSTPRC
Source text: Inhibition Test of Human Secretory Phospholipase A2
In order to identify and evaluate an inhibitor of recombinant human secretory phospholipase A2, the following chromogenic assay is utilized. The assay herein has been applied for high volume screening wherein 96 well microtiterplate is used. A general explanation for such assay is described in “Analysis of Human Synovial Fluid Phospholipase A2 on Short Chain Phosphatidylcholine-Mixed Micelles: Development of a Spectrophotometric Assay Suitable for a Micortiterplate Reader” (Analytical Biochemistry, 204, pp 190-197, 1992 by Laure. J. Reynolds. Lori L. Hughes and Edward A. Dennis: the disclosure of which is incorporated herein for reference.
Bovine Serum Albumin (fatty acid free) (1 g/L) (Sigma A-7030)
pH 7.5 (adjusted with NaOH)
pH 4.5 (adjusted with acetic acid)
1 mg of sPLA2 is dissolved in 1 ml of an enzyme buffer. Thereafter, the solution is maintained at 4° C.
In the assay, 5 μl of the solution is diluted with 1995 μl of the reaction buffer to be used.
198 mg of 5,5′-dithiobis-2-[…] (manufactured by Wako Pure Chemicals) is dissolved in 100 ml of H2O
100 mg of racemic 1,2-bis(heptanoylthio)-1,2-dideoxy-sn-glycero-3-phospholylcholine is dissolved in 1 ml of chloroform.
624.9 mg of Triton-X 100 is dissolved in the reaction buffer.
Enzyme Reaction: for 1 plate of Microtiterplate
1) 0.106 ml of the substrate solution is put in a centrifugal tube, and nitrogen gas is jetted to remove the solvent. 0.54 ml of Triton-X 100 is added thereto, the mixture is stirred, thereafter it is sonified in a bath type sonification to dissolve. To the resulting product are added 17.8 m1l of the reaction buffer and 0.46 ml of DTNB, and 0.18 ml each of the admixture is poured to wells of the 96 well microtiterplate.
2) 10 μl of a test compound (or solvent blank) are added in accordance with alignment of plates which has been previously set.
3) Incubation is effected at 40° C. for 15 minutes.
4) 20 μl of an enzyme solution (sPLA2) which has been previously diluted (50 ng/well) are added to start reaction (40° C., 30 minutes).
5) Changes in absorbancy for 30 minutes are measured by a plate reader, and inhibition activity was calculated (OD: 405 nm).
6) IC50 was determined by plotting log concentration with respect to inhibition values within 10% to 90% inhibiting range.

A melting point of 251 to 252 °C and a pIC50 [1] of 7.52 were found for `COC(=O)COc1cc(-c2ccccc2)nn2c(Cc3ccccc3)c(C)c(C(=O)C(N)=O)c12` [Compound I-45] in this work.

A melting point of 167 to 168 °C and a pIC50 [1] of 6.57 were found for `CCc1c(C(=O)C(N)=O)c2c(OCC(=O)OC)cc(COc3ccc(OC)cc3)nn2c1Cc1ccccc1` [Compound I-46] in this work.

A melting point of 176 to 179 °C and a pIC50 [1] of 6.21 were found for `CCc1c(C(=O)C(N)=O)c2c(OCC(=O)OC)cc(COc3ccc(OC)c(OC)c3)nn2c1Cc1ccccc1` [Compound I-47] in this work.

A melting point of 191 to 192 °C and a pIC50 [1] of 6.68 were found for `CCc1c(C(=O)C(N)=O)c2c(OCC(=O)OC)cc(COc3ccc(C)cc3)nn2c1Cc1ccccc1` [Compound I-48] in this work.

A melting point of 188 to 189 °C and a pIC50 [1] of 5.11 were found for `CCc1c(C(=O)C(N)=O)c2c(OCC(=O)OC)cc(CN3C(=O)CCC3=O)nn2c1Cc1ccccc1` [Compound I-49] in this work.

A melting point of 178 to 179 °C and a pIC50 [1] of 6.28 were found for `CCc1c(C(=O)C(N)=O)c2c(OCC(=O)OCc3ccccc3)cc(CN=[N+]=[N-])nn2c1Cc1ccccc1` [Compound I-50] in this work.

A melting point of 199 to 201 °C and a pIC50 [1] of 4.59 were found for `COC(=O)COc1cc(Cc2ccccc2)nn2c(C)c(C)c(C(=O)C(N)=O)c12` [Compound I-51] in this work.

A melting point of 194 to 196 °C and a pIC50 [1] of 7.03 were found for `COC(=O)COc1cc(C)nn2c(Cc3ccccc3-c3ccc(F)cc3)c(C)c(C(=O)C(N)=O)c12` [Compound I-52] in this work.

A melting point of 234 to 236 °C and a pIC50 [1] of 5.43 were found for `COC(=O)COc1cc(C)nn2c(Cc3ccc(-c4ccccc4)cc3)c(C)c(C(=O)C(N)=O)c12` [Compound I-53] in this work.

A melting point of 190 to 192 °C and a pIC50 [1] of 6.83 were found for `CCc1c(C(=O)C(N)=O)c2c(OCC(=O)OC)cc(C)nn2c1Cc1ccccc1-c1ccc(F)cc1` [Compound I-54] in this work.

A melting point of 197 to 199 °C and a pIC50 [1] of 7.25 were found for `CCOC(=O)COc1cc(C)nn2c(Cc3ccccc3)c(C)c(C(=O)C(N)=O)c12` [Compound I-55] in this work.

A melting point of 160 to 161 °C and a pIC50 [1] of 7.28 were found for `Cc1cc(OCC(=O)OCCN2CCOCC2)c2c(C(=O)C(N)=O)c(C)c(Cc3ccccc3)n2n1` [Compound I-56] in this work.

In the case of `CCc1c(C(=O)C(N)=O)c2c(OCC(=O)O)cc(COc3ccccc3)nn2c1Cc1ccccc1` [Compound I-57], the melting point was 218 to 220 °C (dec.) and the pIC50 [1] was 8.15.

For `CCc1c(C(=O)C(N)=O)c2c(OCC(=O)O)cc(CSc3ccccc3)nn2c1Cc1ccccc1` [Compound I-58], the melting point was 226 to 228 °C (dec.) and the pIC50 [1] was 8.05.

In the case of `CCc1c(C(=O)C(N)=O)c2c(OCC(=O)O)cc(CN3CCCC3)nn2c1Cc1ccccc1` [Compound I-59], the melting point was 228 to 231 °C (dec.) and the pIC50 [1] was 5.97.

A melting point of 167 to 168 °C and a pIC50 [1] of 6.44 were found for `CCc1c(C(=O)C(N)=O)c2c(OCC(=O)O)cc(CN3CCOCC3)nn2c1Cc1ccccc1` [Compound I-60] in this work.

With `CCc1c(C(=O)C(N)=O)c2c(OCC(=O)O)cc(CN3CCN(C)CC3)nn2c1Cc1ccccc1` [Compound I-61] the melting point was 249 to 250 °C (dec.) and the pIC50 [1] was 5.58.

For `CCc1c(C(=O)C(N)=O)c2c(OCC(=O)O)cc(-c3ccc(F)cc3)nn2c1Cc1ccccc1` [Compound I-62], the melting point was 245 to 248 °C (dec.) and the pIC50 [1] was 7.92.

For `CCc1c(C(=O)C(N)=O)c2c(OCC(=O)O)cc(-c3ccc(F)cc3)nn2c1Cc1ccccc1` [Compound I-63], the melting point was 250 to 253 °C (dec.) and the pIC50 [1] was 8.22.

With `CCc1c(C(=O)C(N)=O)c2c(OCC(=O)O)cc(-c3ccc(OC)cc3)nn2c1Cc1ccccc1` [Compound I-64] the melting point was 248 to 250 °C (dec.) and the pIC50 [1] was 8.15.

For `CCc1c(C(=O)C(N)=O)c2c(OCC(=O)O)cc(C)nn2c1Cc1ccccc1-c1ccccc1` [Compound I-65], the melting point was 218 to 219 °C (dec.) and the pIC50 [1] was 8.15.

A melting point of 188 to 190 °C and a pIC50 [1] of 8.22 were found for `CCc1c(C(=O)C(N)=O)c2c(OCC(=O)O)cc(C)nn2c1Cc1cccc(Oc2ccccc2)c1` [Compound I-66] in this work.
